According to patent US20060116390A1, “Hepatitis c virus inhibitors” (priority 2003, published 2006):
Like-named read-outs stand apart in the source and are kept apart here.

Tested on: HCV proteins in Rep5.1 cells (replicon cell line)
Assay: Inhibitory activity of HCV: cell-based ELISA in replicon cell line Rep5.1 (decrease of HCV proteins)
Parameters: species or system hepatitis C virus
Conditions: Rep5.1 cells, 72 hours with drug
Method in brief: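 Rep5.1 replicon cells (5000/well, DMEM-10 with 500 μg/ml G418) were given serially diluted drug 4 h after seeding. After 72 h, cells were fixed in methanol/acetone and HCV proteins detected by cell-based ELISA using replicon-specific patient plasma antibodies. IC50 is the concentration giving 50% protein decrease versus the no-drug control.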

[1] = Hepatitis C virus, 72 h, concentration at which 50% of HCV proteins was decreased, Table 2, read-out: IC50
[2] = Hepatitis C virus, 72 h, decrease of HCV proteins measured by HCV antibody, Table 1, read-out: Level (IC50 values classified)

Row | Structure (SMILES) | IC50 [1] | IC50 [2] | IC50 (concentration at which 50% of HCV proteins was decreased, Table 2, read-out: IC50)
1 | CC1=C(C(=O)OCC=Cc2ccccc2)CNC(=S)N1 [Compound 54, 6-methyl-2-thioxo-1,2,3,4-tetrahydro-pyrimidine-5-carboxylic acid 3-phenyl-allyl ester] | < 500 nM | < 1000 nM | –
2 | CC1=C(C(=O)OCCc2cccc(Cl)c2)C(COC(=O)OCCS(C)(=O)=O)NC(=S)N1 (stereo not drawn) [84″, 4-(2-methanesulfonyl-ethoxycarbonyloxymethyl)-6-methyl-2-thioxo-1,2,3,4-tetrahydro-pyrimidine-5-carboxylic acid 2-(3-chloro-phenyl)-ethyl ester] | 900 nM | < 1000 nM | –
3 | CC1=C(C(=O)OCc2ccc(-c3ccccc3)cc2)CNC(=S)N1 [Compound 22, 6-methyl-2-thioxo-1,2,3,4-tetrahydro-pyrimidine-5-carboxylic acid biphenyl-4-ylmethyl ester] | 400 nM | < 1000 nM | –
4 | CC1=C(C(=O)OCCCCCC(=O)O)CNC(=S)N1 [18′, 6-methyl-2-thioxo-1,2,3,4-tetrahydro-pyrimidine-5-carboxylic acid 5-carboxy-pentyl ester] | > 100000 nM | > 20000 nM | –
5 | CC1=C(C(=O)OCCc2cc3c(C)snc3s2)CNC(=S)N1 [5′, 6-methyl-2-thioxo-1,2,3,4-tetrahydro-pyrimidine-5-carboxylic acid 2-(3-methyl-thieno[2,3-c]isothiazol-5-yl)-ethyl ester] | 2500 nM | 1000 to 10000 nM | –
6 | COc1ccccc1CCOC(=O)C1=C(C)NC(=S)NC1 [Compound 115, 6-methyl-2-thioxo-1,2,3,4-tetrahydro-pyrimidine-5-carboxylic acid 2-(2-methoxy-phenyl)-ethyl ester] | 700 nM | < 1000 nM | –
7 | CC1=C(C(=O)OCC2=Cc3ccccc3S2(=O)=O)CNC(=S)N1 [Compound 127, 6-methyl-2-thioxo-1,2,3,4-tetrahydro-pyrimidine-5-carboxylic acid 1,1-dioxo-1H-11^6-benzo[b]thiophen-2-ylmethyl ester] | – | – | 3500 nM
8 | CC1=C(C(=O)OCCCc2ccsc2)C(CS(=O)(=O)C(C)(C)C)NC(=S)N1 (stereo not drawn) [68′, 6-methyl-4-(2-methyl-propane-2-sulfonylmethyl)-2-thioxo-1,2,3,4-tetrahydro-pyrimidine-5-carboxylic acid 3-thiophen-3-yl-propyl ester] | > 100000 nM | > 20000 nM | –
9 | CC1=C(C(=O)OCCc2ccccc2Cl)C(CO)NC(=S)N1 (stereo not drawn) [41″, 4-hydroxymethyl-6-methyl-2-thioxo-1,2,3,4-tetrahydro-pyrimidine-5-carboxylic acid 2-(2-chloro-phenyl)-ethyl ester] | 7200 nM | 1000 to 10000 nM | –
10 | CC1=C(C(=O)OCc2ccc(C(C)(C)C)cc2)CNC(=S)N1 [Compound 45, 6-methyl-2-thioxo-1,2,3,4-tetrahydro-pyrimidine-5-carboxylic acid 4-t-butyl-benzyl ester] | < 400 nM | < 1000 nM | –
11 | CC1=C(C(=O)OCc2cccc(C(F)(F)F)c2)C(CO)NC(=S)N1 (stereo not drawn) [51″, 4-hydroxymethyl-6-methyl-2-thioxo-1,2,3,4-tetrahydro-pyrimidine-5-carboxylic acid 3-trifluoromethyl-benzyl ester] | 2300 nM | 1000 to 10000 nM | –
12 | CC1=C(C(=O)OCCCCSc2nc3ccccc3s2)C(CO)NC(=S)N1 (stereo not drawn) [70″, 4-hydroxymethyl-6-methyl-2-thioxo-1,2,3,4-tetrahydro-pyrimidine-5-carboxylic acid 4-(benzothiazol-2-ylsulfanyl)-butyl ester] | 400 nM | < 1000 nM | –
13 | CC1=C(C(=O)OC2CCc3ccccc32)CNC(=S)N1 (stereo not drawn) [Compound 123, 6-methyl-2-thioxo-1,2,3,4-tetrahydro-pyrimidine-5-carboxylic acid indan-1-yl ester] | 8000 nM | 1000 to 10000 nM | –
14 | CC1=C(C(=O)OCCc2cc(Cl)ccc2[N+](=O)[O-])C(CO)NC(=S)N1 (stereo not drawn) [54″, 4-hydroxymethyl-6-methyl-2-thioxo-1,2,3,4-tetrahydro-pyrimidine-5-carboxylic acid 2-(5-chloro-2-nitro-phenyl)-ethyl ester] | 8000 nM | 1000 to 10000 nM | –
